According to US20220387457A1 (Qlaris Bio, Inc., priority 2020, published 2022):

Key:
[1] = Toxicokinetics after escalating intravenous doses of CKLP1 in beagles; assay type: in vivo, beagle dog; parameters: AUCTlast/Dose: unit not given here; details: for AUC(0-inf) / AUC(0-t) / C0 / Cmax / Tlast / Tmax / Vd / clearance / half-life / λZ range / RAUC: male, beagle, dog, in vivo, iv
Description: Two beagles (one male and one female) were intravenously injected with escalating doses of CKPL1 (0.05 mg/kg, 0.5 mg/kg, 1.5 mg/kg, 3 mg/kg, and 5 mg/kg) to assess the toxicity of CKLP1. The injection was done through the cephalic vein and CKLP1 was administered in a phosphate buffered saline solution ((0.096% sodium phosphate dibasic, 0.089% sodium dihydrogen orthophosphate monohydrate, 0.83% sodium chloride) pH 6.5±0.1 in sterile water for injection USP). The dosing schedule is shown below in Table 3.
The following parameters and endpoints were evaluated: mortality, clinical observations, body and organ weights, and food consumption. Bioanalytical samples for toxicokinetic parameters (for both CKLP1 and leveromakalim) were collected after each dose level (days 1, 3, 8, 10, and 14) at predose, 1, 3, 6, 8, and 24 hours postdose. Animals were released from the study after completion of the bioanalytical sample collection schedule.
Toxicokinetics (TK) were determined based on the individual exposures for each animal on each sampled study day (days 1, 3, 8, 10, and 14). […] Predose samples had no quantifiable exposure in any animal on any day, with the exception of the female dog on day 10. The predose concentration for the female dog on day 10 was excluded from the TK analysis in order to allow for estimation of the IV C0.

[2] = Plasma pharmacokinetics of CKLP1 and levcromakalim after topical dosing in hound dogs; assay type: in vivo, hound dog; details: for AUC(0-t) / Cmax / Tmax / half-life: plasma
Description: To assess the pharmacokinetic parameters, hound dogs (n=3) were treated with 50 μL topical ocular administration of 10 mM CKLP1 or vehicle (PBS) (n=2) in both eyes, once daily for eight days. Blood (approximately 3 mL) was collected in heparin blood collection tubes at eight different time points (5 minutes, 15 minutes, 30 minutes, 60 minutes, 2 hours, 4 hours, 8 hours and 24 hours) following treatment on days 1, 4 and 8. Plasma was separated from the blood by centrifugation at 2000 rpm for 5 minutes.
Immediately prior to analysis, tissues were thawed and their weight was measured. PBS was added at double the tissue volume homogenized in a rotor stator homogenizer for 30 seconds. […] Detection was accomplished using positive electrospray ionization with multiple-reaction monitoring (MRM). […] Data were acquired and analyzed using Waters MassLynx v4.1 software.

[3] = male dog, IV CKLP1 5 mg/kg, study day 14
[4] = CKLP1, topical 10 mM CKLP1 once daily, Day 1
[5] = CKLP1, topical 10 mM CKLP1 once daily, Day 4
[6] = CKLP1, topical 10 mM CKLP1 once daily, Day 8
[7] = hound, dog, topical or ocular, 10 mM CKLP1, 50 µL in each of both eyes, CKLP1, topical 10 mM CKLP1 once daily, Day 1
[8] = hound, dog, topical or ocular, 10 mM CKLP1, 50 µL in each of both eyes, CKLP1, topical 10 mM CKLP1 once daily, Day 4
[9] = hound, dog, topical or ocular, 10 mM CKLP1, 50 µL in each of both eyes, CKLP1, topical 10 mM CKLP1 once daily, Day 8

Compound: CC1(C)Oc2ccc(C#N)cc2[C@@H](N2CCCC2=O)[C@@H]1OP(=O)(O)O [CKLP1]
- AUCTlast/Dose [1, 3]: 31700
- Cmax/Dose [1, 3]: 4.48e+06 µg/mL
- AUC(0-inf) ([1]; 0.05 mg/kg): 1230 ng·h/mL
- AUC(0-t) ([1]; 0.05 mg/kg): 1120 ng·h/mL
- C0 ([1]; 0.05 mg/kg): 0.301 µg/mL
- Cmax ([1]; 0.05 mg/kg): 0.245 µg/mL
- Tlast ([1]; 0.05 mg/kg): 8.00 h
- Tmax ([1]; 0.05 mg/kg): 1 h
- Vd ([1]; 0.05 mg/kg): 0.131 L/kg
- clearance ([1]; 0.05 mg/kg): 0.678 mL/min/kg
- half-life ([1]; 0.05 mg/kg): 2.23 h
- λZ range ([1]; 0.05 mg/kg): 3 to 8 h
- AUC(0-inf) ([1]; 0.5 mg/kg): 14300 ng·h/mL
- AUC(0-t) ([1]; 0.5 mg/kg): 14300 ng·h/mL
- C0 ([1]; 0.5 mg/kg): 3.58 µg/mL
- Cmax ([1]; 0.5 mg/kg): 2.6 µg/mL
- RAUC ([1]; 0.5 mg/kg): 12.8
- Tlast ([1]; 0.5 mg/kg): 24.0 h
- Tmax ([1]; 0.5 mg/kg): 1 h
- Vd ([1]; 0.5 mg/kg): 0.143 L/kg
- clearance ([1]; 0.5 mg/kg): 0.583 mL/min/kg
- half-life ([1]; 0.5 mg/kg): 2.84 h
- λZ range ([1]; 0.5 mg/kg): 3 to 24 h
- AUC(0-inf) ([1]; 1.5 mg/kg): 43300 ng·h/mL
- AUC(0-t) ([1]; 1.5 mg/kg): 43200 ng·h/mL
- C0 ([1]; 1.5 mg/kg): 10.4 µg/mL
- Cmax ([1]; 1.5 mg/kg): 7.69 µg/mL
- RAUC ([1]; 1.5 mg/kg): 38.6
- Tlast ([1]; 1.5 mg/kg): 24.0 h
- Tmax ([1]; 1.5 mg/kg): 1 h
- Vd ([1]; 1.5 mg/kg): 0.146 L/kg
- clearance ([1]; 1.5 mg/kg): 0.578 mL/min/kg
- half-life ([1]; 1.5 mg/kg): 2.91 h
- λZ range ([1]; 1.5 mg/kg): 1 to 24 h
- AUC(0-inf) ([1]; 3 mg/kg): 89000 ng·h/mL
- AUC(0-t) ([1]; 3 mg/kg): 85100 ng·h/mL
- C0 ([1]; 3 mg/kg): 18.5 µg/mL
- Cmax ([1]; 3 mg/kg): 14.4 µg/mL
- RAUC ([1]; 3 mg/kg): 76.0
- Tlast ([1]; 3 mg/kg): 24.0 h
- Tmax ([1]; 3 mg/kg): 1 h
- Vd ([1]; 3 mg/kg): 0.303 L/kg
- clearance ([1]; 3 mg/kg): 0.562 mL/min/kg
- half-life ([1]; 3 mg/kg): 6.22 h
- λZ range ([1]; 3 mg/kg): 6 to 24 h
- AUC(0-inf) ([1]; 5 mg/kg): 160000 ng·h/mL
- AUC(0-t) ([1]; 5 mg/kg): 159000 ng·h/mL
- C0 ([1]; 5 mg/kg): 25.9 µg/mL
- Cmax ([1]; 5 mg/kg): 22.4 µg/mL
- RAUC ([1]; 5 mg/kg): 142
- Tlast ([1]; 5 mg/kg): 24.0 h
- Tmax ([1]; 5 mg/kg): 1 h
- Vd ([1]; 5 mg/kg): 0.156 L/kg
- clearance ([1]; 5 mg/kg): 0.522 mL/min/kg
- half-life ([1]; 5 mg/kg): 3.47 h
- λZ range ([1]; 5 mg/kg): 1 to 24 h
- Clast [2, 4]: 0.0026 µg/mL
- Tlast [2, 4]: 480 min
- Clast [2, 5]: 0.0014 µg/mL
- Tlast [2, 5]: 1440 min
- Clast [2, 6]: 0.0003 µg/mL
- Tlast [2, 6]: 1450 min
- AUC(0-t) [2, 7]: 72.9 ng·h/mL
- Cmax [2, 7]: 0.0103 µg/mL
- Tmax ([2]; hound, dog, topical or ocular, 10 mM CKLP1, 50 µL in each of both eyes, CKLP1, topical 10 mM CKLP1 once daily, Day 1, read-out: Tmax (converted)): 1 h
- AUC(0-t) [2, 8]: 103 ng·h/mL
- Cmax [2, 8]: 0.0122 µg/mL
- Tmax ([2]; hound, dog, topical or ocular, 10 mM CKLP1, 50 µL in each of both eyes, CKLP1, topical 10 mM CKLP1 once daily, Day 4, read-out: Tmax (converted)): 2 h
- AUC(0-t) [2, 9]: 86.7 ng·h/mL
- Cmax [2, 9]: 0.0089 µg/mL
- Tmax ([2]; hound, dog, topical or ocular, 10 mM CKLP1, 50 µL in each of both eyes, CKLP1, topical 10 mM CKLP1 once daily, Day 8, read-out: Tmax (converted)): 1 h
- half-life ([2]; hound, dog, topical or ocular, 10 mM, CKLP1, topical 10 mM CKLP1 once daily, Day 1): 3.01 h
- half-life ([2]; hound, dog, topical or ocular, 10 mM, CKLP1, topical 10 mM CKLP1 once daily, Day 4): 7.53 h
- half-life ([2]; hound, dog, topical or ocular, 10 mM, CKLP1, topical 10 mM CKLP1 once daily, Day 8): 4.23 h
- Tmax ([2]; hound, dog, topical or ocular, 10 mM, topical 10 mM CKLP1, read-out: time of maximum concentration (Tmax) of CKLP1): ≤ 1 h
- AUC ([2]; hound, dog, topical or ocular, CKLP1 in plasma, topical 10 mM CKLP1): 87.7 ng·h/mL
- AUC of CKLP1 relative to levcromakalim ([2]; topical 10 mM CKLP1): 22.4 fold
- Maximum concentration of CKLP1 in plasma ([2]; topical 10 mM CKLP1, mean of days 1, 4, 8): 10.5 ± 1.7 ng/mL
- conversion of CKLP1 to levcromakalim, estimate from blood concentrations ([2]; topical CKLP1): 10%
